Assay results as given in patent publication US20050009837A1, “Modulators of lipid metabolism and methods of use” (City of Hope, priority 2003, published 2005).

Legend:
[1] = test system: NIH3T3-L1 adipocytes; test: Triglyceride content (Nile Red) of NIH3T3-L1 cells differentiated to adipocytes; type: cell-based; settings: T0901317 200 nM or Clotrimazole 7.5 μm, 7 days
Protocol: NIH 3T3-L1 cells were maintained in growth media consisting of Dulbecco's modified Eagle's medium (DMEM) supplemented with 10% calf bovine serum (CBS), 50 U/ml penicillin G and 50 μg/ml streptomycin sulfate. To induce NIH 3T3-L1 differentiation into adipocytes, confluent cells were transferred from their growth media to DMEM containing 10% fetal bovine serum (FBS), 5 μg/ml insulin, 0.5 mM 3-isobutyl-1-methylxanthine (IBMX) and 1 μM dexamethasone for 7 days. During the differentiation period, cells also optionally received 200 nM T0901317, 7.5 μM Clotrimazole or both.
NIH3T3-L1 cells were allowed to differentiate for 7 days in the presence of a well-established differentiation cocktail containing dexamethazole (1 μm), IBMX (0.5 mM) and insulin (5 μg/ml) in the absence or presence of T0901317 (200 nM) or Clotrimazole (7.5 μm). The cells then were fixed and stained with Nile Red, which stains triglycerides (TG) green, and DAPI to visualize nuclei (in blue). TG content of the cell reflected increased or decreased lipogenesis.

[2] = mice fed the agonist; cited from earlier work
[3] = test system: SREBP-1c expression; test: Real-time PCR of SREBP-1c expression in HepG2 cells; type: cell-based, human; settings: 100 nM, 24 hours, versus untreated
Protocol: Real time PCR was then performed on cDNA derived from RNA isolated form the treated HepG2 cells as follows. Real time quantitative PCR assays were performed using an Applied Biosystems 7700 sequence detector (Applied Biosystems). Each reaction mixture contained 50 ng cDNA, 1.25 pmol each forward and reverse primer, and […] 2× SYBR Green PCR master mix (Applied Biosystems) in a final volume of 25 μl. The PCR conditions were 50° C. for 2 min, 95° C. for 10 min, and 40 cycles of 95° C. for 15 sec and 60° C. for 1 min. Samples were run in duplicate for each primer pair. Expression of glyceraldehyde-3-phosphate dehydrogenase (GAPDH) was analyzed in parallel as an internal control. Each sample was normalized to GAPDH and is represented in the Figure showing the results as arbitrary units with the expression levels in untreated cells assigned a value of one. The primer sequences are as follows: human SREBP-1c forward [NT] ID NO:1); human SREBP-1c reverse [NT] ID NO:2); human GAPDH forward [NT] ID NO:3) and human GAPDH reverse [NT] ID NO:4).

[4] = target: LXRα (Homo sapiens, UniProt Q13133); test: LXR activity, fatty acids
Chain of LXRα (Q13133 whole entry): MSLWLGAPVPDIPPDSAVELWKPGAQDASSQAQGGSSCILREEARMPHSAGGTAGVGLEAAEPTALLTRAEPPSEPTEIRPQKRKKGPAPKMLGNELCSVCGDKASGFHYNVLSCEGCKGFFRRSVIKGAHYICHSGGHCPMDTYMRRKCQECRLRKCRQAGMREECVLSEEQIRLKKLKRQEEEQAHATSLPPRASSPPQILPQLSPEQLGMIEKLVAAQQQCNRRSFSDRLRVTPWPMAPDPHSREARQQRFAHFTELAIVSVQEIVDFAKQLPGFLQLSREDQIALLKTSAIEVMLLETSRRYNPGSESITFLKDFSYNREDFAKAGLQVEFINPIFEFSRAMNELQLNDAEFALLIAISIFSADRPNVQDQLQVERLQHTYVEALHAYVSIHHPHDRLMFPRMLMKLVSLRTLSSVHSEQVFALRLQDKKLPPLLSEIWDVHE

SMILES | TG content compared to differentiation cocktail only [1] | plasma triglycerides compared to mice fed a control diet [2] | increase of SREBP-1c expression [3] | effect on LXR activity [4]
O=S(=O)(c1ccccc1)N(CC(F)(F)F)c1ccc(C(O)(C(F)(F)F)C(F)(F)F)cc1 [T0901317] | small overall increase in TG content | elevated plasma triglycerides | up to 4 fold | –
CC/C=C\C/C=C\C/C=C\CCCCCCCC(=O)O [αlinoleic acid] | – | – | – | LXR antagonist
